This note sets out measurements from PubChem BioAssay AID588407 (The Scripps Research Institute Molecular Screening Center, 2011).

Structures are written as SMILES. The source made the active and inactive calls. How the calls were made is not given here.

The experiment has as its target Mu-type opioid receptor (Homo sapiens) + Delta-type opioid receptor (Homo sapiens) (UniProt P35372+P41143). The experiment can be described thus: agonists of MOR-DOR heterodimerization, dose response, cell-based, luminescence (AID 588407).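 Further: potency of agonists raising the heterodimer signal.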 As to conditions: cells.

Chain of Mu-type opioid receptor (Homo sapiens) + Delta-type opioid receptor (Homo sapiens) (P35372 whole entry, looked up): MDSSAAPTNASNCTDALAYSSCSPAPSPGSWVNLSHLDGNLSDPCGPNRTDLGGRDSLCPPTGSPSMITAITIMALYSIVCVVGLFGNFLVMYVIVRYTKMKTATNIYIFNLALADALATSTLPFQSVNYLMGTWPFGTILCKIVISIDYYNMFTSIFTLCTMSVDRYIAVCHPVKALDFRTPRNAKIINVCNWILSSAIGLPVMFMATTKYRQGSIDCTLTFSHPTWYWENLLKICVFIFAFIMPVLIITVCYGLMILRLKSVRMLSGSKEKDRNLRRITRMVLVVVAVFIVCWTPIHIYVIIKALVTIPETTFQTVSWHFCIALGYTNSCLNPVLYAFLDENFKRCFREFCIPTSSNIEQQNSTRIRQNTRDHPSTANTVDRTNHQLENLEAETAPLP
Chain of Mu-type opioid receptor (Homo sapiens) + Delta-type opioid receptor (Homo sapiens) (P41143 whole entry, looked up): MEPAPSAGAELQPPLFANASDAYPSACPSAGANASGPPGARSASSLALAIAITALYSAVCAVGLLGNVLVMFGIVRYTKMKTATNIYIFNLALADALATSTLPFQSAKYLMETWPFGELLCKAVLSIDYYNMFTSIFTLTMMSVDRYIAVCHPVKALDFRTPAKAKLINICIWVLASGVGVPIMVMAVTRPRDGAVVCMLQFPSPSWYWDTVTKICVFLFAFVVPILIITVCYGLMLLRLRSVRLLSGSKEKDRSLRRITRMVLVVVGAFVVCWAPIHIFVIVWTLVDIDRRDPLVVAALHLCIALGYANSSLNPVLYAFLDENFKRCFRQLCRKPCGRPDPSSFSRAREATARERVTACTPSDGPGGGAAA

In the case of `COc1ccc(-n2cc(CNCc3cccnc3)c(-c3cccc(F)c3)n2)cc1`, the EC50 result was “inactive”.

In the case of `COc1ccc(C(CNC(=O)c2ccc3c(c2)CCC3)N(C)C)cc1` (stereo not given), the EC50 is 0.0459 µM.

As to `CCOC(=O)C1(CCc2ccccc2)CCN(Cc2ccco2)CC1`, the EC50 entry is “inactive”.

Regarding `COc1cccc(C(=O)Nc2ccc3c(c2)C(=O)c2ccccc2C3=O)c1`, the EC50 was 6.74 µM.

`COc1ccc2c(Cl)c(-c3nnc(SCC(=O)c4ccccc4)n3C)sc2c1`: the EC50 was 0.942 µM.

In the case of `CCOC(=O)C1(CCOc2ccccc2)CCN(Cc2cnc(C)s2)CC1`, the EC50 was 7.89 µM.

Take `Cc1ccc(OCC(=O)Nc2ccc(NC(=O)c3cccs3)cc2)c(C)c1`: the EC50 is > 10.3 µM (inactive).

As for `COc1ccc2c(c1)C=C(CN1CCC(CO)(CCc3ccccc3)CC1)CO2`, the EC50 result is “inactive”.

Turning to `Cc1cccc(OCCC(=O)NCC(c2ccccc2)N(C)C)c1` (stereo not given), the EC50 result was “inactive”.

Consider `COc1ccc(C(CNC(=O)C(C)c2ccc3cc(OC)ccc3c2)N(C)C)cc1` (stereo not given), for which the EC50 result was “inactive”.

Regarding `CSCCCNC(=O)c1ccc(OC2CCN(CCc3ccccc3)CC2)cc1`, the EC50 entry was “inactive”.

As for `CCOC(=O)C1(CC2CCCCO2)CCN(Cc2cc(F)ccc2-n2cccn2)CC1` (stereo not given), the EC50 was 8.74 µM.

As to `CC1CN(C)C(C)c2c1oc1ccc(N)cc21` (stereo not given), the EC50 entry is “inactive”.

On to `COc1ccc(C(C(=O)NC2CCCCC2)N(C(=O)Cc2c[nH]c3ccccc23)c2ccc(NC(C)=O)cc2)cc1OC` (stereo not given), for which the EC50 was > 92.5 µM (inactive).

`CCOC(=O)C1(CCOC)CCN(Cc2ccccc2-c2ccco2)CC1`: the EC50 is 3.18 µM.

For `CCOC(=O)c1c(C)[nH]c(C(=O)OC/C(O)=C(\C#N)c2nc3ccccc3[nH]2)c1C`, the EC50 is > 92.5 µM (inactive).

Take `CN(C)CCCN(C(=O)c1ccc(S(=O)(=O)N2CCCCCC2)cc1)c1nc2c(F)cc(F)cc2s1`: the 50% effective concentration (EC50) is 5.86 µM.

For `CC1=C/C(=N\OS(=O)(=O)c2ccccc2)C(C)=CC1=O`, the EC50 result was “inactive”.

`COc1cc(NC(=O)c2cccc(C)c2)ccc1NC(=O)c1cc2ccccc2o1`: the EC50 result was “inactive”.

For the compound `CCN(Cc1ccccc1)S(=O)(=O)c1ccc(C(=O)N(CCCN(C)C)c2nc3c(C)c(C)ccc3s2)cc1`, the EC50 result is “inactive”.

Turning to `CCN1CCN(Cc2ccc(NC(=O)c3ccc(C)c(NC(=O)c4c[nH]c5cc(C(F)(F)F)ccc5c4=O)c3)cc2C(F)(F)F)CC1`, the EC50 was 9.63 µM.

As for `CC(=O)Nc1ccc(CN2CCCC(C(=O)c3cccc(C(F)(F)F)c3)C2)cc1` (stereo not given), the EC50 is 9.35 µM.

Consider `COc1ccc(C2C(C#N)=C(N)N(c3sc4c(c3C#N)CCCC4)C3=C2C(=O)CC(C)(C)C3)cc1` (stereo not given), for which the EC50 was 4.6 µM.

Turning to `Cc1cc(/C=C2\SC(=Nc3ccccc3)NC2=O)c(C)n1-c1ccc(S(N)(=O)=O)cc1`, the 50% effective concentration (EC50) was 1.53 µM.

Turning to `Cc1ccccc1N1CC(O)(c2ccccc2)[N+]2=C1SCC2` (stereo not given), the concentration giving a half-maximal response (EC50) is 2.12 µM.

Turning to `CC1[C@H]2Cc3ccc(O)cc3[C@]1(C)CCN2C` (stereo not given in full), the EC50 result is “inactive”.

Turning to `O=C(OC1C2CCC1C1CN(CCc3ccccc3)CC12)c1ccccc1` (stereo not given), the EC50 entry was “inactive”.

For `Cc1ccc(CC(=O)NCC(c2ccco2)N(C)C)cc1C` (stereo not given), the EC50 was 9.05 µM.

Take `Cn1c(CN2CCN(c3cccc(Cl)c3)CC2)nc2ccccc21`: the EC50 is 3.34 µM.

In the case of `CCc1ccc2nc(N(CCCN(C)C)C(=O)c3ccc(S(=O)(=O)N(C)C4CCCCC4)cc3)sc2c1`, the EC50 entry was “inactive”.

Turning to `CCCc1nc2c(=O)n(C)c(=O)nc-2n(C)n1`, the EC50 is > 92.5 µM (inactive).

For the compound `CN1CCN(Cc2nc3ccccc3c(=O)n2Cc2nc(-c3ccc4ccccc4c3)cs2)CC1`, the EC50 is > 10.3 µM (inactive).

Turning to `CN1C2C=C(N(CCc3ccccc3)C(=O)c3ccc(Cl)cc3)CC1CC2` (stereo not given), the EC50 result is “inactive”.

For `Cc1ccccc1N(CC(=O)N/N=C/c1ccc(F)cc1)C(=O)c1ccccc1`, the EC50 result was “inactive”.

With `CN(C)CCCN(C(=O)c1ccc(Br)s1)c1nc2cc3c(cc2s1)OCCO3`, the EC50 result is “inactive”.

As for `O=C(Nc1ccccc1)c1ccc(NC2CCCCC2)c(S(=O)(=O)N2CCOCC2)c1`, the EC50 entry was “inactive”.

With `CCOC(=O)C1(CC2CC2)CCN(Cc2cnc(-c3ccccc3C)nc2)CC1`, the EC50 entry is “inactive”.

With `O=C(CSc1ccc(Cl)cc1)Nc1ccc(-c2nc3ccccc3[nH]2)cc1`, the EC50 was > 92.5 µM (inactive).

As for `CCOc1ccc(S(=O)(=O)Nc2cccc(C(=O)NCC(c3ccccc3)N(C)C)c2)cc1` (stereo not given), the EC50 was 7.76 µM.

On to `COc1cc(C(=O)OC(C)C(=O)NCC2CCCCC2)cc(NC(=O)c2ccco2)c1OC` (stereo not given), for which the EC50 was > 92.5 µM (inactive).

For the compound `CN(C)CCCN(C(=O)c1ccc(S(=O)(=O)N2CCc3ccccc3C2)cc1)c1nc2c(F)cc(F)cc2s1`, the EC50 was 0.856 µM.

On to `CCOC(=O)C1(c2ccccc2)CCN(CCC(=O)Nc2ccc(F)cc2)CC1`, for which the EC50 was 2.36 µM.

Consider `CN(C)C(CNC(=O)c1cccc(C(F)(F)F)c1)c1ccco1` (stereo not given), for which the EC50 is > 92.4 µM (inactive).

For `CCn1cc(CNCc2cn(-c3ccccc3C)nc2-c2ccc(OC)c(F)c2)cn1`, the EC50 was 1.75 µM.

In the case of `COC(=O)CCCNC(=O)c1ccc(OC2CCN(CCc3ccccc3)CC2)cc1`, the EC50 entry is “inactive”.

In the case of `CC1(NC(=O)CC(c2ccccc2)(c2ccccc2)c2ccccc2)CCN(CCCc2ccccc2)C1=O` (stereo not given), the EC50 was 0.895 µM.

`CCC(=O)OC(Cc1ccccc1)(c1ccccc1)[C@H](C)CN(C)C` (stereo not given in full): the EC50 is 9.98 µM.

In the case of `Cc1ccc2c(Cl)c(Cc3ccccc3)c(=S)[nH]c2n1`, the EC50 entry was “inactive”.

On to `Brc1ccc(NC2=Nc3ccccc3CC2)cc1`, for which the EC50 entry was “inactive”.

Consider `OC(CNCCC(c1ccccc1)c1ccccc1)COc1ccccc1` (stereo not given), for which the EC50 entry is “inactive”.

Turning to `Cc1cc(Cl)ccc1OCC(=O)N[C@@H](Cc1ccccc1)c1nc2ccccc2[nH]1`, the EC50 entry was “inactive”.

`Cc1ccccc1NC(=S)NCC(c1cccnc1)N(C)C` (stereo not given): the EC50 was 1.54 µM.

For the compound `CSCCC(/C(O)=C(\C#N)c1nc2ccccc2[nH]1)N1C(=O)c2ccccc2C1=O` (stereo not given), the EC50 was 9.92 µM.

For `CN(C)C(CNC(=O)NC1CCCCC1)c1cccnc1` (stereo not given), the EC50 is 1.27 µM.

Take `Cc1ccc2c(C)c(C(=O)N(Cc3cccs3)C3CCS(=O)(=O)C3)oc2c1` (stereo not given): the EC50 was 7.04 µM.

As to `COC(=O)C1=CO[C@@H](C)[C@@H]2CN(CCc3c[nH]c4ccccc34)CC[C@H]12`, the EC50 was 4.05 µM.

On to `COc1ccc(C(CNC(=O)C(Cc2ccccc2)NC(N)=O)N(C)C)cc1` (stereo not given), for which the EC50 result was “inactive”.

As to `Cc1ccc(C2(O)CN(c3ccccc3)C3=[N+]2CCS3)cc1` (stereo not given), the EC50 is 2.93 µM.

With `CCOC(=O)C1(CC2CCCCO2)CCN(Cc2c(C)cc(C)cc2-n2cccn2)CC1` (stereo not given), the EC50 was 0.53 µM.

For `CCC(=O)OC1(c2cccc(C)c2)CC(C)N(C)CC1C` (stereo not given), the EC50 entry was “inactive”.

For `COc1ccc(C2CC(c3ccc(OC)cc3)n3nc(NC(=O)c4cccs4)nc3N2)cc1` (stereo not given), the EC50 result was “inactive”.

Take `CCOC(=O)C1(Cc2ccccc2)CCN(Cc2cccn2-c2nccs2)CC1`: the EC50 result was “inactive”.

As to `CCOc1ccc(Nc2c3ccccc3nc3ccccc23)cc1`, the EC50 entry was “inactive”.

`C/C(=N/Nc1ccnc2cc(Cl)ccc12)c1ccc(N)cc1`: the EC50 entry is “inactive”.

On to `CCCCCCCCCCOC(=O)Cn1c(COc2ccccc2C)[n+](C)c2ccccc21`, for which the EC50 result was “inactive”.

For `CCCC(=O)NC(C)C(c1cccs1)N1CCN(c2ccccc2)CC1` (stereo not given), the EC50 result was “inactive”.

In the case of `COc1ccc(-c2nn(-c3ccccc3C)cc2CNCc2cccnc2)cc1F`, the EC50 was 7.79 µM.

With `CN1CCN(c2ccc(NC(=O)c3ccc(-c4ccccc4F)o3)cc2)CC1`, the EC50 is 3.26 µM.

As for `Cc1ccc(C)c(-n2cc(CNC(C)Cn3cncn3)c(-c3ccccc3)n2)c1` (stereo not given), the EC50 result is “inactive”.

Take `CN(C)C(CNC(=O)C1CC(=O)N(Cc2ccccc2)C1)c1ccccc1` (stereo not given): the EC50 result was “inactive”.

As to `O=C1C=C(c2c(O)ccc3ccccc23)c2ccccc2C1=O`, the EC50 was 9.82 µM.

Consider `COc1ccc(-c2nc(CN3CCC(C(=O)NC4CCCc5ccccc54)CC3)c(C)o2)cc1OC` (stereo not given), for which the concentration giving a half-maximal response (EC50) is 1.9 µM.

Regarding `Cc1cc(C)cc(C(=O)N(CCc2ccccc2)C2=CC3CCC(C2)N3C)c1` (stereo not given), the EC50 is 5.91 µM.

In the case of `OC(CN1CCN(C(c2ccccc2)c2ccccc2)CC1)c1ccccc1` (stereo not given), the EC50 result was “inactive”.

As to `CN(C)C(CNC(=S)Nc1cccc(Cl)c1)c1ccccc1` (stereo not given), the EC50 was 0.375 µM.

For the compound `COC(=O)C1=C(C)N(CCCC(=O)O)C(=O)NC1c1ccccc1OS(=O)(=O)c1ccccc1[N+](=O)[O-]` (stereo not given), the EC50 is 8.75 µM.

Turning to `OCC1(CCc2ccccc2)CCN(Cc2cc(F)ccc2-n2cccn2)CC1`, the EC50 is 4.67 µM.

On to `CCC(=O)C(CCN1CCOCC1)(c1ccccc1)c1ccccc1`, for which the EC50 is 0.982 µM.

Turning to `Cc1nc2nc(C)n(CCN3CCOCC3)c(=O)c2c(-c2cccc([N+](=O)[O-])c2)c1C(=O)CCCCCCCCCCN1CCC(c2ccccc2)(c2ccccc2)CC1`, the EC50 entry is “inactive”.

Take `CN1CCN(c2ccc(NC(=O)c3ccc(-c4cccc([N+](=O)[O-])c4)o3)cc2)CC1`: the EC50 result was “inactive”.

`COc1ccc(CNCCc2c[nH]c3ccccc23)c(OC)c1C`: the EC50 entry was “inactive”.

With `COC(=O)c1cc2c(n1S(=O)(=O)c1ccc(C)cc1)C(=O)C(=O)c1[nH]cc(C(=O)OCc3ccccc3)c1-2`, the EC50 is 2.56 µM.

On to `CN(C)C(CNC(=O)c1ccc(C(F)(F)F)cc1)c1ccco1` (stereo not given), for which the EC50 was 7.74 µM.

On to `Cc1cccc(NC(=S)NC(=O)CCc2ccccc2)c1`, for which the EC50 is > 92.5 µM (inactive).

Regarding `CCc1ccc2nc(N(CCCN(C)C)C(=O)c3ccc(S(=O)(=O)N4CCc5ccccc5C4)cc3)sc2c1`, the EC50 result is “inactive”.

As for `OCC1(CCc2ccccc2)CCN(Cc2cccn2-c2cccnc2)CC1`, the EC50 was 4.69 µM.

For the compound `Cc1ccc(C)c(NC(=S)NCC(c2ccccc2)N(C)C)c1` (stereo not given), the EC50 is 0.535 µM.

Take `CCc1ccc(Nc2n[n+](-c3ccccc3)c(-c3c(Cl)cccc3Cl)s2)cc1`: the EC50 is 9.08 µM.

As to `Cc1ccc(CSCC(=O)N/N=C/c2sccc2C)cc1`, the EC50 was 6.07 µM.

In the case of `Cc1cc(/C=C2/C(=O)NN(c3ccccc3)C2=O)c(C)n1-c1ccc(O)cc1`, the EC50 is 8.46 µM.
